IC50 data for 20 compounds are collected here from patent US12180215B2, “Substituted pyrrolo[3,4-d]imidazoles as JAK inhibitors” (HENAN MEDINNO PHARMACEUTICAL TECHNOLOGY CO., LTD., priority 2019, dated 2024).

As usually defined, the IC50 is the concentration that inhibits the measured activity by half. A lower IC50 goes with higher potency.

Structures are written as SMILES.

The target in test [1] is JAK1 (Homo sapiens, UniProt P23458). Description: JAK1 kinase ADP-Glo assay (Example 60). Background: ADP-Glo first removes unused ATP, then detects ADP through luciferase.
Sequence of JAK1 (P23458 850-1154 limits assumed): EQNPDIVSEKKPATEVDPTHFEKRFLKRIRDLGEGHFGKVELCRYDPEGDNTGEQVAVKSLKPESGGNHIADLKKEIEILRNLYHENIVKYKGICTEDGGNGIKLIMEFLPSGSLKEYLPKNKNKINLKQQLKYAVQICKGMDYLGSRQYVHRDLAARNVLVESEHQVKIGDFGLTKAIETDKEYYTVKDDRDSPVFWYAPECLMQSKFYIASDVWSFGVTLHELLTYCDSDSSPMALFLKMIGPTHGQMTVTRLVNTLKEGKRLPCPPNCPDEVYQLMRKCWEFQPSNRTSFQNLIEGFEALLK
Test [2] concerns the target JAK2 (Homo sapiens, UniProt O60674). Description: JAK2 kinase ADP-Glo assay (Example 60).
Test [3] deals with JAK3 (Homo sapiens, UniProt P52333). Description: JAK3 kinase ADP-Glo assay (Example 60).
Sequence of JAK3 (P52333 795-1124 limits assumed): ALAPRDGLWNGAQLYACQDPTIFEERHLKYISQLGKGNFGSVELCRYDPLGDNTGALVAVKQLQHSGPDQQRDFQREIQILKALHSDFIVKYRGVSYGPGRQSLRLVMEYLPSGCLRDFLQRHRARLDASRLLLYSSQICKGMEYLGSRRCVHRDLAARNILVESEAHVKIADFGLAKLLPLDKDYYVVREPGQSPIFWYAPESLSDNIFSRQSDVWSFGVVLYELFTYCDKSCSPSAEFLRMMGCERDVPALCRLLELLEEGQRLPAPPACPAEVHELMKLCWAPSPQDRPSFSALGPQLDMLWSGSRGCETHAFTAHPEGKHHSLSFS
Test [4] deals with T1, TYK2 (Homo sapiens, UniProt P29597).
T1 sequence (P29597 871-1187 limits assumed): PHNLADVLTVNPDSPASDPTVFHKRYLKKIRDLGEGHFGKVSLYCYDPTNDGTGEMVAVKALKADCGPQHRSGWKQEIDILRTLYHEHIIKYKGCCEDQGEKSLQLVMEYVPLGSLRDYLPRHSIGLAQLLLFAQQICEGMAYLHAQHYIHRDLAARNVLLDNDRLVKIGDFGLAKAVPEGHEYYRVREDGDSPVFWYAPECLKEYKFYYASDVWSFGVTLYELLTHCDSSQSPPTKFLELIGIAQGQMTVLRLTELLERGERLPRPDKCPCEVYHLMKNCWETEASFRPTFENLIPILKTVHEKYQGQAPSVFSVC
Description: TYK2 kinase ADP-Glo assay (Example 60).

Sequence of JAK2 (O60674 826-1132 limits assumed): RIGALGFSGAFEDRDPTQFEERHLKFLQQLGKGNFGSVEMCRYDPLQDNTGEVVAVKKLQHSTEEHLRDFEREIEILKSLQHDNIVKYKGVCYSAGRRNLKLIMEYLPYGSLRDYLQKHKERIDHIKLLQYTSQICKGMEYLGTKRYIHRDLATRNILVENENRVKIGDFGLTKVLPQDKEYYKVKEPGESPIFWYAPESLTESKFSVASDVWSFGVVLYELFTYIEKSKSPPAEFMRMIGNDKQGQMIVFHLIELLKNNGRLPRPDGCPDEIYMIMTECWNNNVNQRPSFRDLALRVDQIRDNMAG

In the case of `CCc1cc(O)c(F)cc1-c1ccc2c(-c3nc4c([nH]3)CN(C(=O)N3CCN(C)CC3)C4)n[nH]c2c1` [MDI-235, (2-(6-(2-ethyl-5-fluoro-4-hydroxyphenyl)-1H-indazol-3-yl)-4,6-dihydropyrrolo[3,4-d]imidazol-5-(1H)-yl)(4-methylpiperazin-1-yl)ketone], the IC50 in test [1] worked out at 39.5 pM; in test [2], 166 pM; in test [3], 183 pM; in test [4], 142 pM.
For `CCc1cc(O)c(F)cc1-c1ccc2c(-c3nc4c([nH]3)CN(C(=O)N3CCN(CC)CC3)C4)n[nH]c2c1` [MDI-236, (2-(6-(2-ethyl-5-fluoro-4-hydroxyphenyl)-1H-indazol-3-yl)-4,6-dihydropyrrolo[3,4-d]imidazol-5-(1H)-yl)(4-ethylpiperazin-1-yl)ketone], in that order: 40.3 pM, 329 pM, 141 pM and 95.4 pM.
The like results for `CCc1cc(O)c(F)cc1-c1cnc2c(-c3nc4c([nH]3)CN(C(=O)C3CC3)C4)n[nH]c2c1` [MDI-237, cyclopropyl (2-(6-(2-ethyl-5-fluoro-4-hydroxyphenyl)-1H-pyrazolo[4,3-b]pyridine-3-yl)-4,6-dihydropyrrolo[3,4-d]imidazol-5(1H)-yl)ketone] were, in that order, 758 pM, 588 pM, 1390 pM and 9680 pM.
As for `CCc1cc(O)c(F)cc1-c1cc(C)c2c(-c3nc4c([nH]3)CN(C(=O)C3CC3)C4)n[nH]c2c1` [MDI-239, cyclopropyl (2-(6-(2-ethyl-5-fluoro-4-hydroxyphenyl)-4-methyl-1H-indazol-3-yl)-4,6-dihydropyrrolo[3,4-d]imidazol-5(1H)-yl)ketone], the IC50 was determined as 1150 pM in test [1], 1200 pM in test [2], 4940 pM in test [3] and 19200 pM in test [4].
For `CCc1cc(O)c(F)cc1-c1cc(C)c2c(-c3nc4c([nH]3)CN(C(=O)N3CC[C@H](O)C3)C4)n[nH]c2c1` [MDI-240, (S)-(2-(6-(2-ethyl-5-fluoro-4-hydroxyphenyl)-4-methyl-1H-indazol-3-yl)-4,6-dihydropyrrolo[3,4-d]imidazol-5(1H)-yl)(3-hydroxylpyrrolidin-1-yl)ketone], in that order: 450 pM, 842 pM, 2020 pM and 5340 pM.
For `CCc1cc(O)c(F)cc1-c1cc2[nH]nc(-c3nc4c([nH]3)CN(C(=O)C3CC3)C4)c2cn1` [MDI-242, cyclopropyl(2-(6-(2-ethyl-5-fluoro-4-hydroxyphenyl)-1H-pyrazolo[4,3-c]pyridine-3-yl)-4,6-dihydropyrrolo[3,4-d]imidazol-5(1H)-yl)ketone], in that order: 67200 pM, 28600 pM, 152000 pM and 583000 pM.
The like results for `CCc1cc(O)c(F)cc1-c1ccc2c(-c3nc4c([nH]3)CN(C(=O)N3CC[C@@H](O)C3)C4)n[nH]c2c1` [MDI-243, (R)-(2-(6-(2-ethyl-5-fluoro-4-hydroxyphenyl)-1H-indazol-3-yl)-4,6-dihydropyrrolo[3,4-d]imidazol-5(1H)-yl)(3-hydroxylpyrrolidin-1-yl)ketone] were, in that order, 118 pM, 499 pM, 269 pM and 167 pM.
In the case of `CCc1cc(O)c(F)cc1-c1ccc2c(-c3nc4c([nH]3)CN(C(=O)N3CC(O)C3)C4)n[nH]c2c1` [MDI-244, (2-(6-(2-ethyl-5-fluoro-4-hydroxyphenyl)-1H-indazol-3-yl)-4,6-dihydropyrrolo[3,4-d]imidazol-5(1H)-yl)(3-hydroxylazetidin-1-yl)ketone], the IC50 in test [1] came to 248 pM; in test [2], 915 pM; in test [3] it was 550 pM; in test [4], 1310 pM.
Consider `CCc1cc(O)c(F)cc1-c1ccc2c(-c3nc4c([nH]3)CN(C(=O)N3CCC(O)CC3)C4)n[nH]c2c1` [MDI-245, (2-(6-(2-ethyl-5-fluoro-4-hydroxyphenyl)-1H-indazol-3-yl)-4,6-dihydropyrrolo[3,4-d]imidazol-5(1H)-yl)(4-hydroxylpiperidin-1-yl)ketone], for which the concentration for half-maximal inhibition (IC50) in test [1] was found to be 178 pM; in test [2] it was 648 pM; in test [3] it was 306 pM; in test [4], 365 pM.
For `CCc1cc(O)c(F)cc1-c1ccc2c(-c3nc4c([nH]3)CN(C(=O)NC)C4)n[nH]c2c1` [MDI-246, 2-(6-(2-ethyl-5-fluoro-4-hydroxyphenyl)-1H-indazol-3-yl)-N-methyl-4,6-dihydropyrrolo[3,4-d]imidazol-5-(1H)-carboxamide], in that order: 241 pM, 973 pM, 709 pM and 1520 pM.
For the compound `CCNC(=O)N1Cc2nc(-c3n[nH]c4cc(-c5cc(F)c(O)cc5CC)ccc34)[nH]c2C1` [MDI-247, 2-(6-(2-ethyl-5-fluoro-4-hydroxyphenyl)-1H-indazol-3-yl)-N-ethyl-4,6-dihydropyrrolo[3,4-d]imidazol-5-(1H)-carboxamide], the IC50 in test [1] was 557 pM; in test [2], 1880 pM; in test [3], 1300 pM; in test [4] it was 2350 pM.
For `CCc1cc(O)c(F)cc1-c1ccc2c(-c3nc4c([nH]3)CN(C(=O)NCCO)C4)n[nH]c2c1` [MDI-248, 2-(6-(2-ethyl-5-fluoro-4-hydroxyphenyl)-1H-indazol-3-yl)-N-(2-hydroxylethyl)-4,6-dihydropyrrolo[3,4-d]imidazol-5(1H)-carboxamide], the IC50 in test [1] is 93 pM; in test [2], 560 pM; in test [3], 303 pM; in test [4], 578 pM.
The like results for `CCc1cc(O)c(F)cc1-c1ccc2c(-c3nc4c([nH]3)CN(C(=O)N3CC(C#N)C3)C4)n[nH]c2c1` [MDI-249, 1-(2-(6-(2-ethyl-5-fluoro-4-hydroxyphenyl)-1H-indazol-3-yl)-1,4,5,6-tetrahydropyrrolo[3,4-d]imidazol-5-carbonyl)Azetidin-3-nitrile] were, in that order, 307 pM, 697 pM, 398 pM and 1930 pM.
For `CCc1cc(O)c(F)cc1-c1ccc2c(-c3nc4c([nH]3)CN(C(=O)N3CCC(C#N)C3)C4)n[nH]c2c1` (centres unmarked) [MDI-250, 1-(2-(6-(2-ethyl-5-fluoro-4-hydroxyphenyl)-1H-indazol-3-yl)-1,4,5,6-tetrahydropyrrolo[3,4-d]imidazol-5-carbonyl)pyrrolidin-3-nitrile], in that order: 395 pM, 974 pM, 497 pM and 993 pM.
For `CCc1cc(O)c(F)cc1-c1ccc2c(-c3nc4c([nH]3)CN(C(=O)NC3CCOC3)C4)n[nH]c2c1` (centres unmarked) [MDI-251, 2-(6-(2-ethyl-5-fluoro-4-hydroxyphenyl)-1H-indazol-3-yl)-N-(tetrahydrofuran-3-yl)-4,6-dihydropyrrolo[3,4-d]imidazol-5(1H)-carboxamide], the IC50 in test [1] stood at 144 pM; in test [2], 818 pM; in test [3], 406 pM; in test [4] it was 1330 pM.
Regarding `CCc1cc(O)c(F)cc1-c1ccc2c(-c3nc4c([nH]3)CN(C(=O)OC)C4)n[nH]c2c1` [MDI-252, Methyl 2-(6-(2-ethyl-5-fluoro-4-hydroxyphenyl)-1H-indazol-3-yl)-4,6-dihydropyrrolo[3,4-d]imidazol-5(1H)-carboxylate], the IC50 in test [1] was 1800 pM; in test [2], 2600 pM; in test [3], 2200 pM; in test [4], 22000 pM.
Take `CCOC(=O)N1Cc2nc(-c3n[nH]c4cc(-c5cc(F)c(O)cc5CC)ccc34)[nH]c2C1` [MDI-253, Ethyl 2-(6-(2-ethyl-5-fluoro-4-hydroxyphenyl)-1H-indazol-3-yl)-4,6-dihydropyrrolo[3,4-d]imidazol-5(1H)-carboxylate]: the IC50 stood at 2900 pM in test [1], 1600 pM in test [2], 1500 pM in test [3] and 31000 pM in test [4].
In the case of `CCc1cc(O)c(F)cc1-c1ccc2c(-c3nc4c([nH]3)CN(C(=O)CC#N)C4)n[nH]c2c1` [MDI-256, 3-(2-(6-(2-ethyl-5-fluoro-4-hydroxyphenyl)-1H-indazol-3-yl)-4,6-dihydropyrrolo[3,4-d]imidazol-5(1H)-yl)-3-oxypropionitrile], the IC50 was 700 pM in test [1], 3060 pM in test [2], 2710 pM in test [3] and 6140 pM in test [4].
As for `CCc1cc(O)c(F)cc1-c1ccc2c(-c3nc4c([nH]3)CN(C(=O)N(C)C)C4)n[nH]c2c1` [MDI-257, 2-(6-(2-ethyl-5-fluoro-4-hydroxyphenyl)-1H-indazol-3-yl)-N,N-dimethyl-4,6-dihydropyrrolo[3,4-d]imidazol-5(1H)-carboxamide], the IC50 in test [1] worked out at 185 pM; in test [2], 600 pM; in test [3] it was 381 pM; in test [4] it was 684 pM.
The like results for `CCc1cc(O)c(F)cc1-c1ccc2c(-c3nc4c([nH]3)CN(C(=O)NCCC#N)C4)n[nH]c2c1` [MDI-258, N-(2-cyanoethyl)-2-(6-(2-ethyl-5-fluoro-4-hydroxyphenyl)-1H-indazol-3-yl)-4,6-dihydropyrrolo[3,4-d]imidazole-5(1H)-carboxamide] were, in that order, 939 pM, 3310 pM, 2360 pM and 6270 pM.
